According to ChEMBL document CHEMBL1201862, “PubChem BioAssay data set” (2004):
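Tested at 5 concentrations; 48 h exposure; 96-well plates; endpoints linearly interpolated, else capped at highest concentration. At the GI50, growth is halved.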 The source made the active and inactive calls. Cut-off read from the data, not from the text of the source: active = GI50 up to about 1.1 µM and inactive = higher.

Experiments:
Test in all cases: NCI-60 cell line screen, 48 h
NCI-H522 = tested on: NCI-H522
HT-29 = tested on: HT-29
786-0 = tested on: 786-0
EKVX = tested on: EKVX
UO-31 = tested on: UO-31
KM12 = tested on: KM12
HOP-92 = tested on: HOP-92
COLO 205 = tested on: COLO 205
TK-10 = tested on: TK-10
RPMI-8226 = tested on: RPMI-8226
IGROV-1 = tested on: IGROV-1
MDA-MB-435 = tested on: MDA-MB-435
BT-549 = tested on: BT-549
M14 = tested on: M14
SNB-19 = tested on: SNB-19
DLD-1 = tested on: DLD-1
SK-OV-3 = tested on: SK-OV-3
MDA-MB-231 = tested on: MDA-MB-231
OVCAR-5 = tested on: OVCAR-5
Malme-3M = tested on: Malme-3M

Measured: GI50

NN
inactive: NCI-H522 335 µM | HT-29 234 µM | 786-0 204 µM | EKVX 883 µM | UO-31 434 µM | KM12 480 µM | HOP-92 525 µM | COLO 205 328 µM | TK-10 893 µM | RPMI-8226 303 µM | IGROV-1 357 µM | MDA-MB-435 210 µM | BT-549 1080 µM | M14 468 µM | SNB-19 887 µM | DLD-1 296 µM | SK-OV-3 1240 µM | MDA-MB-231 423 µM | OVCAR-5 514 µM | Malme-3M 881 µM

Cc1cc(C)nc(NS(=O)(=O)c2ccc(NC(=O)c3ccc(Cl)c4c(Nc5ccc(S(=O)(=O)N=C(N)N)cc5)c5ccccc5nc34)cc2)n1
inactive: NCI-H522 16.1 µM | HT-29 16.4 µM | 786-0 32.7 µM | EKVX > 100 µM | UO-31 > 100 µM | KM12 37.9 µM | HOP-92 25.5 µM | COLO 205 61.5 µM | TK-10 33.9 µM | RPMI-8226 28.1 µM | IGROV-1 63.8 µM | M14 > 100 µM | SNB-19 > 100 µM | DLD-1 7.67 µM | SK-OV-3 > 100 µM | OVCAR-5 > 100 µM | Malme-3M > 100 µM

CCOC(=O)C1(C)CCC(C(C(=O)O)C(=O)O)CC1=O (stereo unspecified)
inactive: NCI-H522 > 100 µM | HT-29 > 100 µM | 786-0 > 100 µM | EKVX > 100 µM | UO-31 > 100 µM | KM12 > 100 µM | HOP-92 > 100 µM | COLO 205 > 100 µM | TK-10 > 100 µM | RPMI-8226 > 100 µM | IGROV-1 > 100 µM | M14 > 100 µM | SNB-19 > 100 µM | DLD-1 > 100 µM | SK-OV-3 > 100 µM | OVCAR-5 > 100 µM | Malme-3M > 100 µM

C/C(=N\N)C(CN(C)C)C(c1ccccc1)c1c(O)c2ccccc2oc1=O (stereo unspecified)
inactive: NCI-H522 > 94.4 µM | HT-29 > 100 µM | 786-0 > 100 µM | EKVX > 70.8 µM | UO-31 > 100 µM | KM12 > 100 µM | HOP-92 25.2 µM | COLO 205 > 100 µM | TK-10 > 100 µM | RPMI-8226 97.3 µM | IGROV-1 > 100 µM | MDA-MB-435 > 100 µM | BT-549 > 100 µM | M14 > 100 µM | SNB-19 > 100 µM | DLD-1 > 100 µM | SK-OV-3 > 100 µM | MDA-MB-231 > 100 µM | OVCAR-5 > 100 µM | Malme-3M > 94.2 µM

COc1ccc2c(c1)CC1c3c(ccc(OC)c3O)CC2N1C (stereo unspecified)
inactive: NCI-H522 19.7 µM | HT-29 22.9 µM | 786-0 29.1 µM | EKVX 50.9 µM | UO-31 30.8 µM | KM12 28.2 µM | HOP-92 28.1 µM | COLO 205 18.2 µM | TK-10 64.4 µM | RPMI-8226 20.9 µM | IGROV-1 44.1 µM | M14 16.5 µM | SNB-19 47.6 µM | DLD-1 68.5 µM | SK-OV-3 62.7 µM | OVCAR-5 54.5 µM | Malme-3M 15.7 µM
